These results are taken from patent US20150335535A1, “DENTAL ADHESIVE” (DENTSPLY INTERNATIONAL INC., priority 2008, published 2015).

Structures are written as SMILES.

A short description of this data set: Thermal stability of test formulation on storage at 60° C. until thermal polymerization. The data set is classed as physicochemical. As to conditions: for thermal stability of formulation FBE-05.44.01: all columns dark shaded; for sufficient thermal stability: inhibitor in test formulation. The protocol: A series of test formulations containing different thermal polymerization inhibitors was prepared in order to illustrate the surprising thermal stability of a dental adhesive composition according to the present invention. Test formulations containing different inhibitors or inhibitor concentrations were stored in Prime&Bond NT bottles ([…]) at 60° C. until thermal polymerization. The bottles were daily examined by shaking the bottle, whereby the acoustical test turned out to be rather sensitive, and by taking a sample with a pipette. When polymerization seemed to have occurred or after a certain minimum storage time (20 days) the bottles were sliced open and the solution were examined visually. According to the results of the above described Arrhenius investigation at least a thermal stability of about 11 days at 60° C. is necessary so that the dental adhesive composition may be stored at room temperature. The Test Formulation containing different inhibitors in different amounts, was investigated regarding its thermal stability by storing these formulations at 60° C. The samples were daily examined. In case of polymerization a gel or a solid, polymerized body was observed. The dark shaded columns represent formulations with inhibitors, respectively inhibitor concentrations, which were polymerized after the depicted time at 60° C. The light shaded columns represent formulations, which were not polymerized until the depicted time. Usually after 20 days the investigation was terminated.

Consider `CC(C)(C)c1cc(O)ccc1O` [TBHQ, tert-Butylhydroquinone], for which the “visual examination after slicing open the bottles” value was “polymerization was found” (0.013 mol % inhibitor, after 20 days at 60° C.); “No hints of a polymerization were found” (after 14 days and after 20 days at 60° C., FBE-05.44.01).
On to `CCCOC(=O)c1cc(O)c(O)c(O)c1` [PG, Propyl gallate], for which, under “storage at 60° C.”, the “thermal stability of formulation FBE-05.44.01” value is on record as “polymerized after the recorded time”.
`COc1ccc(O)cc1` [HQME, hydroquinone monomethylether]: the “visual examination after slicing open the bottle” value (0.49 mol % inhibitor in FBE-05.44.01, storage at 60° C.) was “small pieces of gel were found at the bottom” and the “visual examination after slicing open the bottle” value (0.697 mol % inhibitor in FBE-05.44.01, storage at 60° C.) is reported as “small pieces of gel were found at the bottom”. Further, under “storage at 60° C.”, the sufficient thermal stability result is recorded as “failed to provide a sufficient thermal stability”.
As for `COc1ccc(O)c(C(C)(C)C)c1` [tert.-Butylhydroxyanisole, tert.-Butylhydroxyanisol], the “visual examination after slicing open the bottles” value is reported as “some pieces of gel” (0.047 mol % inhibitor, after 14 days at 60° C.); “some small pieces of gel” (0.047 mol % inhibitor, after 20 days at 60° C.); “No indication of polymerization” (0.096 mol % inhibitor, after 20 days at 60° C.); “No indication of polymerization” (0.147 mol % inhibitor, after 20 days at 60° C.).
Regarding `Cc1cc(C(C)(C)C)c(O)c(C(C)(C)C)c1` [BHT, 2,6-di-tert.-butyl-p-cresol], the sufficient thermal stability result (storage at 60° C.) is “failed to provide a sufficient thermal stability”.
Take `Oc1ccc(O)cc1` [HQ, hydroquinone]: the stabilization effect result (inhibitor 0.15 mol % in test formulation, storage at 60° C.) was “some stabilization effect”.
Consider `CC(C)(C)c1ccc(O)c(O)c1` [TBC], for which, for the setting “0.193 mol % inhibitor, storage at 60° C.”, the “visual examination after slicing open the bottle” value is “some pieces of gel were found at the bottom”.
Regarding `CC(C)(c1ccc(O)cc1)c1ccc(O)cc1` [Bisphenol A], the “thermal stability of formulation FBE-05.44.01” value (storage at 60° C.) is recorded as “polymerized after the recorded time”.
